The source of these data is a melting point compilation (Tetko et al.; mined from patent text by program, amines drawn as free bases though some values may be those of a salt).

Some results are limits rather than exact numbers.

The melting point is the temperature of the solid-liquid transition. `CC(C)(C)NS(=O)(=O)c1ccccc1-c1ccccn1`: the melting point fell in the range of 147 to 150 °C.
Under `COc1ccc(C2Cc3cc(OC)c(OC)c(OC)c3C2=O)cc1` (centres undefined) stands 104 to 106 °C; under `CCCCCCCCCCCCCCCCOCC(CO)OC` (centres undefined), 56 °C.
The compound `Cc1cccc2c(=O)[nH]c(C3CCN(C)CC3)cc12` gave a melting point of 196 to 198 °C.
As to `O=C(CCC(=O)N1CCC(c2ccc(Cl)cc2)CC1)c1ccc2c(c1)CCN(CCn1cccc1)CC2`, the melting point was 96 to 97 °C.
Under `CS(=O)(=O)CCCC1(C(=O)O)CCC1` stands 113 to 116 °C; under `CN1C(=O)C(F)N=C(c2ccccc2F)c2cc(Br)ccc21` (centres undefined), 127 to 130 °C; under `CNC(=O)c1cc(-c2ccc(OC)cc2)nn(Cc2ccc([N+](=O)[O-])cc2)c1=O`, 199 °C.
The figure for `C(=C\c1nc2ccccc2n1-c1ccccn1)/c1ccoc1` is 162 to 164 °C; for `CCc1cccc(CC(=O)O)c1OCCCc1cn(-c2ccc(C(F)(F)F)cn2)nc1C(CC)CC` it is 130 to 131 °C; for `CCCC12CCC(c3ccc(C#N)c(F)c3)(CC1)CC2` it is 63 °C.
Under `COc1ccc(C(C#Cc2ccccc2)CC(=O)N(C)C)cc1OC1CCCC1` (racemic) stands 87 to 89 °C; under `COC(=O)Cc1ccc(OS(=O)(=O)C(F)(F)F)c(NC(C)=O)c1`, 68.5 to 70 °C; under `CCCCc1nc2c(n1Cc1ccc(C(=O)OC)cc1)C[C@@H](C(=O)O)N(C(=O)C(c1ccccc1)c1ccccc1)C2`, 176 to 180 °C.
Take `CCOC(=O)c1ccc(OCc2csc3nc(C(=O)OCC)[nH]c(=O)c23)cc1`: the melting point was in the range of 205 to 208 °C.
With `COc1cc(N)c([N+](=O)[O-])cc1NCCO`, the melting point is 165 °C.
Under `OC1CSC(Oc2cc(-c3ccc(F)nc3)cc(F)c2F)C(O)C1O` (centres undefined) stands 179 °C; under `Cc1ccc2nc(SCCN(C)C)[nH]c2c1`, 103 °C; under `Cc1cc(-c2sc(N3CCN(Cc4ccc(C(F)(F)F)cc4)C3=O)nc2C)on1`, 201 to 203 °C.
Under `CCCCCCC(c1cccc(C(=O)NC(c2ccccc2)c2ccccc2)c1)c1nnn[nH]1` (centres undefined) stands 198 to 200 °C; under `O=C1CCC(N2C(=O)c3cccc(NCC(=O)N4CCC4)c3C2=O)C(=O)N1` (centres undefined), 272 to 274 °C; under `CCC(CC)Nc1c(NCc2ccc(OC)c(OC)c2)c(=O)c1=O`, 223 to 224 °C.
The figure for `CCOC(=O)c1cc2c(C(=O)CN(Cc3ccccc3)C(C)(C)C)ccc(OCc3ccccc3)c2[nH]1` is 155 to 157 °C.
Turning to `CCCCCNC(=O)Nc1ccccc1C(=O)NCC1CCN(C(c2ccccc2)c2ccccc2)CC1`, the melting point lay in the range of 178 to 180 °C.
For the compound `CNC(=O)C1(Nc2nc(Nc3cc4c(cc3OC)CCN(CCOC)CC4)ncc2Cl)CC1`, the melting point was in the range of 211 to 215 °C.
Under `COc1cc(OC)nc(NC(=O)NS(=O)(=O)Nc2c(C)csc2C)n1` stands 190 °C.
The figure for `CCOc1ccc(C2CC(C(C)(C)C)=NN2c2ccc(C(=O)O)cc2)cc1` (centres undefined) is 160 °C; for `COC(=O)c1cccc(C2C(C#N)=C(N)Oc3c2ccc2cccnc32)c1` (centres undefined) it is 198 to 200 °C; for `O=C(O)c1cc2c(c(C(=O)O)c1)NCCS2` it is over 300 °C.
Under `O=C1OCc2c1cc1ccc3c(c1c2-c1ccc2ccccc2c1)OCO3` stands 224 to 226 °C; under `COc1cc(CS(=O)c2ccc(O)cc2)cc(OC)c1OC` (centres undefined), 153 °C; under `COC(=O)CS(=O)CCCCCn1nc(-c2ccccc2)c(-c2ccccc2)c1-c1ccccc1` (centres undefined), 108 to 109 °C.
`COc1cc(OCc2ccccn2)ccc1/C=C/c1cc(/C=C/c2cc3ccccc3[nH]2)n[nH]1` returned a melting point of 151 to 152 °C.
Under `C(=C\c1ccc2c(c1)COC(N[C@@H]1CCc3ccccc31)=N2)/c1cccnc1` stands 132 °C.
